Test results from patent publication EP4763841A1, “PYRIDAZINONE COMPOUND AND USE THEREOF” (Xi'an Xintong Pharmaceutical Research Co., Ltd., priority 2023, dated 2025).
Where two headings read alike, the source gives them in different places.

Columns and labels:
[1] = In vivo pharmacokinetic study of elimination phase half-life after single IV bolus; parameters: species or system Sprague Dawley rats; conditions: Sprague-Dawley, rat, whole blood, intravenous, I.V bolus, 5 mg/kg, rats, read-out: Elimination phase half-life (T1/2) (converted)
Method: Blood samples were collected from animals (IV group) before administration and at time points of 0.083 h, 0.25 h, 0.5 h, 1 h, 2 h, 4 h, 8 h, and 24 h after the end of administration. • Sample treatment: prior to blood collection, a centrifuge tube with 10 µl of EDTA-K2 and 1.2 mL of 50% acetonitrile-DMSO (a volume ratio of whole blood to 50% acetonitrile-DMSO is approximately 1:4) was placed in an ice box filled with crushed ice. The collected blood was added to the centrifuge tube, vortexed for at least 5 min, and then temporarily stored and transported in the ice box filled with crushed ice; and the blood was centrifuged at 12,000 g for 10 min at 4°C, wherein centrifugation was completed within 1 h after blood collection. A whole blood supernatant after centrifugation was transferred to a newly labeled tube, and transferred to -60°C or below for storage for analytical testing.

NASH model of B-DIO mice = test: Efficacy test in NASH model of B-DIO mice (HFD + CCL4); assay type: in vivo
Text: An objective of this experiment was to evaluate the pharmacodynamics of compounds of the present invention by using an NASH model of B-DIO mice.
Five C57BL/6 mice on normal diet were assigned to an experimental group G1, and 25 B-DIO mice were randomly assigned to five experimental groups according to the body weight, with 5 mice in each group.
The day of grouping was Day-1, intraperitoneal injection was started on Day 0 in the groups G2-G6 for CCL4 modeling, the concentration of a modeling agent is 0.2 µl/g, the modeling frequency was twice a week, and administration was started on Day 0.
The body weight was measured twice a week after grouping. At the end of the experiment (Day 26), the mice were fasted for 4 h, and non-anticoagulated blood of the mice in the groups G1-G6 was collected and centrifuged, and a serum was taken for blood biochemical testing. Livers in the groups G1-G6 were collected and weighed, 20 mg of the liver was weighed for determination of TC and TG, and the remaining liver was placed in formalin for fixation for pathological observation.

[2] = Comparison of compound metabolites by human liver microsome incubation (LC-MS/MS); assay type: in vitro ADME; conditions: 10 µM compound, human liver microsome 1.0 mg/mL, β-NADPH 1.0 mM, 37°C, 60 min
Method: The purpose of this experiment was to evaluate the comparison of the content of major metabolites of human liver microsome incubated compounds.
Sample treatment: a sample was precipitated with acetonitrile (ACN) containing 0.1% formic acid in a ratio of 1:2, and further centrifuged. A supernatant was dried with a nitrogen flow. A residue was reconstituted in […] of 10% ACN and 90% H2O containing 0.1% formic acid. […] of the reconstituted material was injected into an LC-MS/MS system for analysis.

THRα = THRα (Homo sapiens, UniProt P10827); test: HTRF test of agonist-induced SRC3-2 coactivator peptide recruitment to THRα-LBD; assay type: biochemical; conditions: for EC50: HTRF, starting concentration 20 µM, 3-fold dilution, 10 concentrations, duplicate; for agonistic activity on THRα: result in words
Method: (§1) 1. Experiment of binding of compounds to THRβ and THRα
(§2) Test principle: The effect of test compounds on THRβ and THRα was tested by using a method of HTRF. An MAb Anti GST-Eu cryptate antibody binds to GST-tagged THRα-LBD (or THRβ-LBD), while Streptavidin-XL665 binds to a biotin-labeled SRC3-2 coactivator peptide. […] At the same time, the resulting decrease in the distance between XL665-labeled SRC3-2 and an Eu-anti-GST antibody increases a THRFRET signal. The agonistic capacity at this target was assessed by the effect of compounds on the activity of THRα-LBD (THRβ-LBD) at different concentrations.
(§3) • (1) a 1×reaction solution was prepared. • (2) Preparation of compounds: the compound test starting concentration was 20 µM, 3-fold dilution was performed, 10 concentrations were set, and duplicate testing was set for each concentration. 100-fold dilution was performed in a 384-well Source plate to a corresponding solution with a final concentration, and then 200 nL of the solution was transferred to a 384-well reaction plate with Echo550 to be tested. 200 nL of 100% DMSO and a test article were respectively transferred to Min and Max wells. • (3) A 2×protein solution was prepared from the 1×reaction solution. • (4) A 4×SRC3-2 solution was prepared from the 1×reaction solution. • (5) A mixed solution of 4×GST-Eu cryptate and XL665 was prepared from the 1×reaction solution. • (6) 10 µl of the 2×protein solution was added to each well of the reaction plate, centrifugation was performed at 1000 rpm for 1 min, and incubation was performed at room temperature for 30 min. • (7) 5 µl of the 4×SRC3-2 solution was added to each well of the reaction plate, and centrifugation was performed at 1000 rpm for 1 min. • (8) 5 µL of the mixed solution of 4×GST-Eu cryptate and XL665 was added to each well of the reaction plate, centrifugation was performed at 1000 rpm for 1 min, and incubation was performed at 25°C. • (9) A fluorescence signal was read by using EnVision.
THRα test procedures were the same as above.

THRβ = biological target: T1, THRβ (Homo sapiens, UniProt P10828); test: HTRF test of agonist-induced SRC3-2 coactivator peptide recruitment to THRβ-LBD; assay type: biochemical; conditions: for agonistic activity on THRβ compared with Resmetirom / selectivity of agonistic effect for THRβ over THRα: result in words
T1 sequence (P10828 217-461 limits assumed): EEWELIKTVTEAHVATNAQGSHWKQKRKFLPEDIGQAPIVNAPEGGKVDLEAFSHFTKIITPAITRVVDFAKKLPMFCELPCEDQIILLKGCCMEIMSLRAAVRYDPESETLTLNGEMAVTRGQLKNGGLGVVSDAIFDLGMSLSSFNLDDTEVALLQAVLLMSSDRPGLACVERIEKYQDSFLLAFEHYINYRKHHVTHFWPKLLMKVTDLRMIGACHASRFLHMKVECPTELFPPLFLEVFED
Method: as §1, §2
Test method: THRβ test procedures:
as §3

[3] = liver, Day 26, 3 mg/kg I.G. Q.D., HFD+CCL4, mean±standard error
[4] = HTRF, starting concentration 20 µM, 3-fold dilution, 10 concentrations, duplicate, read-out: THRβ (EC50)

Chain of THRα (P10827 148-410 isoform P10827-2 limits assumed, other chains not shown): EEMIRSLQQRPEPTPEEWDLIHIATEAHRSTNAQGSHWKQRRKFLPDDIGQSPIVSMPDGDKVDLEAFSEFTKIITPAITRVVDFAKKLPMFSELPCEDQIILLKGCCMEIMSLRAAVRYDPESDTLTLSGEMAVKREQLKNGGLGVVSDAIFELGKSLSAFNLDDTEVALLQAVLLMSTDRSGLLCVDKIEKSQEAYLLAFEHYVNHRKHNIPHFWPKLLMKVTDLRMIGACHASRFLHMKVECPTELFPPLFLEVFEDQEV

| Compound | EC50 (THRβ; [4]) | EC50 (THRα) | agonistic activity on THRα (THRα) | agonistic activity on THRβ compared with Resmetirom (THRβ) | selectivity of agonistic effect for THRβ over THRα (THRβ) | further results |
| --- | --- | --- | --- | --- | --- | --- |
| CC(C)c1cc(Oc2c(Cl)cc(-n3nc(C#N)c(=O)[nH]c3=O)cc2Cl)n[nH]c1=O [Resmetirom, reference compound] | – | – | – | – | – | half-life [1]: 179 min; area proportion of lipid droplets in the liver (oil red O) compared with the model group G2 (NASH model of B-DIO mice; G3, 3 mg/kg, Day 26, result in words (FIG. 8)): decreased but no significant difference was seen; liver fibrosis (Sirius red) compared with the model group G2 (NASH model of B-DIO mice; G3, 3 mg/kg, Day 26, result in words (FIG. 9)): certain improvement effects on liver fibrosis; TC (NASH model of B-DIO mice; [3]): 56.44 ± 0.85 µmol/g; TG (NASH model of B-DIO mice; [3]): 74.26 ± 4.34 µmol/g; TG (NASH model of B-DIO mice; serum, Day 26, 3 mg/kg I.G. Q.D., HFD+CCL4, mean±standard error): 1.17 ± 0.06 mM |
| Cc1c(Oc2c(Cl)cc(-n3nc(CF)c(=O)[nH]c3=O)cc2Cl)n[nH]c(=O)c1C(C)C [Compound 16] | 11 nM | > 5000 nM | weak agonistic activity on THRα | significantly better than that of Resmetirom | selective agonistic effects on THRβ | Monooxidized metabolite percent content (%) [2]: 9.7%; Monooxidized metabolite percent content (%) ([2]; listed as compound 16): 9.7% |
| Cc1c(C(C)C)c(Oc2c(Cl)cc(-n3nc(CF)c(=O)[nH]c3=O)cc2Cl)n[nH]c1=O [Compound 17] | – | > 5000 nM | weak agonistic activity on THRα | significantly better than that of Resmetirom | selective agonistic effects on THRβ | EC50 (THRβ): 46 nM |

Second part, led by results:

| EC50 (THRβ; [4]) | Compound | EC50 (THRα) | agonistic activity on THRα (THRα) | agonistic activity on THRβ compared with Resmetirom (THRβ) | selectivity of agonistic effect for THRβ over THRα (THRβ) | further results |
| --- | --- | --- | --- | --- | --- | --- |
| 20 nM | [2H]C([2H])([2H])C(c1cc(Oc2c(Cl)cc(-n3nc(CF)c(=O)[nH]c3=O)cc2Cl)n[nH]c1=O)C([2H])([2H])[2H] [Compound 1] | 326 nM | – | significantly better than that of Resmetirom | – | – |
| 22 nM | CC(C)c1cc(Oc2c(Cl)cc(-n3nc(CF)c(=O)[nH]c3=O)cc2Cl)n[nH]c1=O [Compound X1, reference compound] | 95 nM | – | – | – | – |
